Drawing on patent US8859590B2, “Inhibitors of BACE1 and methods for treating Alzheimer's disease” (Purdue Research Foundation, priority 2008, dated 2014), this text covers Ki for eleven compounds.

SMILES strings stand for the structures.

Sequence of BACE1 (Memapsin 2) (P56817 46-501): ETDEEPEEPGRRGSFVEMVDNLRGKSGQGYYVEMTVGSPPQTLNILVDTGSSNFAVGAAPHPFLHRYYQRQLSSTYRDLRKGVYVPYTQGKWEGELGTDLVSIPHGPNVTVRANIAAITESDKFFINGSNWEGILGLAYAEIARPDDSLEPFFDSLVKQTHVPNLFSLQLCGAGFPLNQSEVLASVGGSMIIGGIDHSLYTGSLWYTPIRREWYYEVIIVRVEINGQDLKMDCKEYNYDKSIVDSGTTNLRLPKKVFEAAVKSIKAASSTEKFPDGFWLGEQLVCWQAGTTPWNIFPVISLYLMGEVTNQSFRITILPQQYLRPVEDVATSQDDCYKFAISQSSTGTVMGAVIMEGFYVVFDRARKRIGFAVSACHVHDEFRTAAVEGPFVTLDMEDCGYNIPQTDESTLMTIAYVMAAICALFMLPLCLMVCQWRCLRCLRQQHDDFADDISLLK

This test has as its target BACE1 (Memapsin 2) (Homo sapiens, UniProt P56817). In words: Inhibition of BACE1 (memapsin 2) catalytic activity, fluorogenic substrate FS-2. Format: biochemical. Particulars: inhibition constants of BACE1; pH 4, 37° C. The protocol:
Inhibition of BACE1 (Memapsin 2). Potency of compounds are determined by measurement of their inhibition of memapsin 2 catalytic activity toward a fluorescent substrate. […] Briefly, assays are performed at pH 4, 37° C., by pre-incubation of memapsin 2 enzyme with compound for 20 minutes. Activity measure is initiated by addition of a fluorogenic substrate FS-2 (Bachem Americas, Torrance, Calif.). Fluorescent signal increase over time is measured as a rate of hydrolysis of the peptide substrate. […]
The compound `COc1cccc([C@H](NC[C@H](Cc2ccccc2)NC(=O)c2cccc(C(=O)N(C)Cc3nc(C)cs3)c2)[C@H](O)Cc2ccccc2)c1` [Example 0449] registered a Ki of over 1000 µM.

Regarding `Cc1csc(CN(C)C(=O)c2cccc(C(=O)N[C@H](CN[C@@H]3c4ccccc4C[C@@H]3O)Cc3ccccc3)c2)n1` [Example 0647], the Ki was under 1000 µM.

`COc1cccc([C@@H](NC[C@H](Cc2ccccc2)NC(=O)c2cccc(C(=O)N(C)Cc3nc(C)cs3)c2)[C@H](O)Cc2ccccc2)c1` [Example 0439] gave a Ki of over 1000 µM.

The compound `Cc1csc(CN(C)C(=O)c2cccc(C(=O)N[C@H](CN[C@H](C(=O)NCC(C)C)[C@H](C)O)Cc3ccccc3)c2)n1` [Example 0637] registered a Ki of under 1000 µM.

On to `COC(=O)[C@H](NC[C@H](Cc1ccccc1)NC(=O)c1cccc(C(=O)N(C)Cc2nc(C)cs2)c1)[C@@H](C)O` [Example 0667], for which the Ki was over 1000 µM.

As for `COC(=O)[C@H](NC[C@H](Cc1ccccc1)NC(=O)c1cc(C(=O)N[C@H](C)c2ccccc2)cc(N(C)S(C)(=O)=O)c1)[C@@H](C)O` [Example 0417], the Ki is under 1000 µM.

Regarding `CC(C)CNC[C@@H](NC[C@H](Cc1ccccc1)NC(=O)c1cc(C(=O)N[C@H](C)c2ccccc2)cc(N(C)S(C)(=O)=O)c1)[C@@H](O)CC(C)C` [Example 1479], the inhibition constant Ki is under 0.1 µM.

`CC(C)CNC[C@@H](NC[C@H](Cc1ccccc1)NC(=O)c1cc(C(=O)N[C@H](C)c2ccccc2)cc(N(C)S(C)(=O)=O)c1)[C@H](C)O` [Example 1439] showed a Ki of under 0.1 µM.

With `C[C@@H](NC(=O)c1cc(C(=O)N[C@H](CN[C@@H]2c3ccccc3C[C@@H]2O)Cc2ccccc2)cc(N(C)S(C)(=O)=O)c1)c1ccccc1` [Example 0407], the Ki was under 1000 µM.

The compound `C[C@@H](NC(=O)c1cc(C(=O)N[C@H](CN[C@H]2c3ccccc3C[C@H]2O)Cc2ccccc2)cc(N(C)S(C)(=O)=O)c1)c1ccccc1` [Example 0427] gave a Ki of under 1000 µM.

As to `C[C@@H](NC(=O)c1cc(C(=O)N[C@H](CN[C@H](CO)Cc2ccccc2)Cc2ccccc2)cc(N(C)S(C)(=O)=O)c1)c1ccccc1` [Example 0397], the Ki is under 1000 µM.
